Experiments:
Assay type in all cases: biochemical
ROCK2 = ROCK2 (Homo sapiens, UniProt O75116); experiment: In vitro inhibitory activity assay ROCK2 (ADP-Glo); conditions: ATP 200 μM, Cheng-Prusoff; read-out: ROCK2 (Ki, range of activity)
Experimental: (§1) In Vitro Inhibitory Activity Assay Description ROCK1 and ROCK2
(§2) The effectiveness of compounds of the present invention to inhibit Rho kinase activity can be determined in a 10 μl assay containing 40 mM Tris pH7.5, 20 mM MgCl2 0.1 mg/mL BSA, 50 μM DTT and 2.5 μM peptide substrate (Myelin Basic Protein) using an ADP-Glo kit (Promega). Compounds were dissolved in DMSO such that the final concentration of DMSO was 1% in the assay. All reactions/incubations are performed at 25° C. Compound (2 ul) and either Rho kinase 1 or 2 (4 μl) were mixed and incubated for 30 mins. Reactions were initiated by addition of ATP (4 μl) such that the final concentration of ATP in the assay was 200 μM. After a 1 hour incubation 10 μl of ADP-Glo Reagent was added and after a further 1 hour incubation 20 ul of Kinase Detection Buffer was added and the mixture incubated for a further 45 minutes. The luminescent signal was measured on a luminometer. […] Compounds were tested in dose-response format and the inhibition of kinase activity was calculated at each concentration of compound. To determine the IC50 (concentration of compound required to inhibit 50% of the enzyme activity) data were fit to a plot of % inhibition vs Log 10 compound concentration using a sigmoidal fit with a variable slope and fixing the maximum to 100% and the minimum to 0%. To determine the Ki values the Cheng-Prusoff equation was utilized (Ki=IC50/(1+[S]/Km).

PKA = PKA (Homo sapiens, UniProt P17612); experiment: In vitro inhibitory activity assay for PKA (ADP-Glo), reported as selectivity ratio vs ROCK2; conditions: Ki value for PKA divided by Ki value of ROCK2
Experimental: In Vitro Inhibitory Activity Assay Description for PKA
The effectiveness of compounds of the present invention to inhibit PKA activity can be determined in a 10 μl assay containing 40 mM Tris pH7.5, 20 mM MgCl2 0.1 mg/ml BSA, 50 μM DTT and 260 μM peptide substrate (kemptide) using an ADP-Glo kit (Promega). Compounds were dissolved in DMSO such that the final concentration of DMSO was 1% in the assay. All reactions/incubations are performed at 25° C. Compound and PKA enzyme (6 μl) were mixed and incubated for 30 mins. Reactions were initiated by addition of ATP (4 μl) such that the final concentration of ATP in the assay was 10 μM. After a 30 minute incubation 10p of ADP-Glo Reagent was added and after a further 1 hour incubation 20 μl of Kinase Detection Buffer was added and the mixture incubated for a further 45 minutes. The luminescent signal was measured on a luminometer. […] Compounds were tested in dose-response format and the inhibition of kinase activity was calculated at each concentration of compound. To determine the IC50 (concentration of compound required to inhibit 50% of the enzyme activity) data were fit to a plot of % inhibition vs Log10 compound concentration using a sigmoidal fit with a variable slope and fixing the maximum to 100% and the minimum to 0%. To determine the Ki values the Cheng-Prusoff equation was utilized (Ki=IC50/(1+[S]/Km).
In vitro inhibitory activities for PKA were reported as selectivity ratio vs. ROCK-2.

ROCK1 = ROCK1 (Homo sapiens, UniProt Q13464); experiment: In vitro inhibitory activity assay ROCK1 (ADP-Glo); conditions: ATP 200 μM, Cheng-Prusoff; read-out: ROCK 1 (Ki, range of activity)
Experimental: as §1, §2

ROCK2, sequence (O75116 whole entry): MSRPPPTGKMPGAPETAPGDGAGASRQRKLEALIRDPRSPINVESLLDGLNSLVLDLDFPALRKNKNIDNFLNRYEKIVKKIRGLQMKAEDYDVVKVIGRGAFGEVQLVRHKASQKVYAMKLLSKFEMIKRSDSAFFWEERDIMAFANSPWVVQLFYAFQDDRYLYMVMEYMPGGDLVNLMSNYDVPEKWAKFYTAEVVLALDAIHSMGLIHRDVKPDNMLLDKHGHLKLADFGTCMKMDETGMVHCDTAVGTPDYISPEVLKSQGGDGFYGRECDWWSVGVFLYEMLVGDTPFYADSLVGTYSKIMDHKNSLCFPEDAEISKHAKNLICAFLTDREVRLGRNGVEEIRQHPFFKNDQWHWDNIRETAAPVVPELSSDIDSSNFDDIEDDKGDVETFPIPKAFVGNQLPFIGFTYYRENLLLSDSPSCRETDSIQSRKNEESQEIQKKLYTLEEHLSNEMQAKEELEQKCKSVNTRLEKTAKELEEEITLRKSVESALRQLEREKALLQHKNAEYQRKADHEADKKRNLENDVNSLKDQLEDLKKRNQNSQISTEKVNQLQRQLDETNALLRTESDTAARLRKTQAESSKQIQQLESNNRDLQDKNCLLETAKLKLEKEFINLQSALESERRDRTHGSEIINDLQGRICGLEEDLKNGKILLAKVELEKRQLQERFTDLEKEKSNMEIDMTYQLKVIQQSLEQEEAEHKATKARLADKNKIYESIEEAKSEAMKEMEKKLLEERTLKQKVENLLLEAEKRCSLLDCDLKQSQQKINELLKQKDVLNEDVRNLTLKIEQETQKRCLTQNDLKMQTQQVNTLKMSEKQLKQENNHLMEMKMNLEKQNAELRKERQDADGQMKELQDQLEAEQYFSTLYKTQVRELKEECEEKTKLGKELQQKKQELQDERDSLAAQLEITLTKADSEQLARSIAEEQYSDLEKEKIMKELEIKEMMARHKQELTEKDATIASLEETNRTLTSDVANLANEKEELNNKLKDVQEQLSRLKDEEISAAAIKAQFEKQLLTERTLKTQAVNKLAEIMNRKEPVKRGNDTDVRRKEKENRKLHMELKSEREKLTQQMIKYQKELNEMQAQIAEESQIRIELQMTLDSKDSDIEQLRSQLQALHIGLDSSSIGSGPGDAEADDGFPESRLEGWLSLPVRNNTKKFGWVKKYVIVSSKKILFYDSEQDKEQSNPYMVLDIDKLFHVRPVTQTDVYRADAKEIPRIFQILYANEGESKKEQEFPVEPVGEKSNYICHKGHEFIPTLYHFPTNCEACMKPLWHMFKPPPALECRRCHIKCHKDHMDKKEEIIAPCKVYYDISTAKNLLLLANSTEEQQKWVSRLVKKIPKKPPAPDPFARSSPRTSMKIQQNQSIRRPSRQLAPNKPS
ROCK1, sequence (Q13464 whole entry): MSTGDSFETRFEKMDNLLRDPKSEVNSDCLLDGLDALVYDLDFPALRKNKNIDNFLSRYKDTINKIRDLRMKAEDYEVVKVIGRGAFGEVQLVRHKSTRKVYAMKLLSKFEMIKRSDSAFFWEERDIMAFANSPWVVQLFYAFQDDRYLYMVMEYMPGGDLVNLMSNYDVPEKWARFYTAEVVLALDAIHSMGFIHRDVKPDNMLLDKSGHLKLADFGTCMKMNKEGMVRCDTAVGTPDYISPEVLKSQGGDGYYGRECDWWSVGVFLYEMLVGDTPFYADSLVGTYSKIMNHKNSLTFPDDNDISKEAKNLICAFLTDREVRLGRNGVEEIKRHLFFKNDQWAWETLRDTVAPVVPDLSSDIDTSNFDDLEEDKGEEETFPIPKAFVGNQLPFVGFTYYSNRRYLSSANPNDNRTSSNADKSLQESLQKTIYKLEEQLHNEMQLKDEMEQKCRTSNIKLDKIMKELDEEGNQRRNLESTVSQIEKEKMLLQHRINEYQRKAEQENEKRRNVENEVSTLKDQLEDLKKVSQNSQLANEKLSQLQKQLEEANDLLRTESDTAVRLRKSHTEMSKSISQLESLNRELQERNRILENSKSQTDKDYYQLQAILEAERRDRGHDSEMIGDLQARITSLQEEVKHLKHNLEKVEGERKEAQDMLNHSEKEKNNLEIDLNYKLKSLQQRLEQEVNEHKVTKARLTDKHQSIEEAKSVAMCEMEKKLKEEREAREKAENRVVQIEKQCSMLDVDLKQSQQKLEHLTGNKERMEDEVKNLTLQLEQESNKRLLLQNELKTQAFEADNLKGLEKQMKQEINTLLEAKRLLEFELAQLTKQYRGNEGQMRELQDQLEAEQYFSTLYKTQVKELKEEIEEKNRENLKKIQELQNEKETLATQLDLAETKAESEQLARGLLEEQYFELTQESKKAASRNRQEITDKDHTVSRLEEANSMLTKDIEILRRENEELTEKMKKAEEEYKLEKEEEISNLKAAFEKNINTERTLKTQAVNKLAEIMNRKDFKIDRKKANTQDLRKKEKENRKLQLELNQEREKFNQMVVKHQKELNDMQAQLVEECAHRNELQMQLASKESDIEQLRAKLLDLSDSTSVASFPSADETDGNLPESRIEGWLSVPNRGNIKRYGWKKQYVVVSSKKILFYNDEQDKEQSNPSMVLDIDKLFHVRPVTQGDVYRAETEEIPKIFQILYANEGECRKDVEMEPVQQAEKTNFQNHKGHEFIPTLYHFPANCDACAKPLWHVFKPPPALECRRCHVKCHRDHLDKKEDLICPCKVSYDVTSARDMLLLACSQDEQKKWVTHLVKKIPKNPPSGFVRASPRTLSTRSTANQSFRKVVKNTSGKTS

Row | SMILES | Ki (ROCK2) [nM] | Ratio (PKA/ROCK2) (PKA) | Ki (ROCK1) [nM]
1 | Nc1nccc(-c2cnc(NCc3cccc(C(=O)NC4CC4F)c3)c3c2OCC3)n1 (single isomer, unassigned) [Example 45, Trans 3-(((7-(2-Aminopyrimidin-4-yl)-2,3-dihydrofuro[3,2-c]pyridin-4-yl)amino)methyl)-N-(2-fluorocyclopropyl)benzamide] | ≤ 3 | *** (ratio≥10) | ≤ 3
2 | C[C@@H]1CCC[C@H](C)N1CCNC(=O)c1cccc(CNc2ncc(-c3ccnc(N)n3)c3c2CCO3)c1 [Example 19, 3-(((7-(2-Aminopyrimidin-4-yl)-2,3-dihydrofuro[3,2-c]pyridin-4-yl)amino)methyl)-N-(2-((2R,6S)-2,6-dimethylpiperidin-1-yl)ethyl)benzamide] | ≤ 3 | *** (ratio≥10) | ≤ 3
3 | COCCCNC(=O)c1cc(CNc2ncc(-c3ccnc(N)n3)c3c2CCO3)ccc1F [Example 57, 5-(((7-(2-Aminopyrimidin-4-yl)-2,3-dihydrofuro[3,2-c]pyridin-4-yl)amino)methyl)-2-fluoro-N-(3-methoxypropyl)benzamide] | ≤ 3 | *** (ratio≥10) | 3 to 30
4 | Nc1nccc(-c2cnc(NCc3cccc(C(=O)NCC4CCOCC4)c3)c3c2OCC3)n1 [Example 2, 3-(((7-(2-Aminopyrimidin-4-yl)-2,3-dihydrofuro[3,2-c]pyridin-4-yl)amino)methyl)-N-((tetrahydro-2H-pyran-4-yl)methyl)benzamide] | ≤ 3 | *** (ratio≥10) | ≤ 3
5 | Nc1nccc(-c2cnc(NCc3cccc(C(=O)N[C@H]4C[C@H](F)C4)c3)c3c2OCC3)n1 [Example 49, 3-(((7-(2-Aminopyrimidin-4-yl)-2,3-dihydrofuro[3,2-c]pyridin-4-yl)amino)methyl)-N-((1r,3r)-3-fluorocyclobutyl)benzamide] | ≤ 3 | *** (ratio≥10) | ≤ 3
6 | CC(F)(F)CNC(=O)c1cccc(CNc2ncc(-c3ccnc(N)n3)c3c2CCO3)c1 [Example 44, 3-(((7-(2-Aminopyrimidin-4-yl)-2,3-dihydrofuro[3,2-c]pyridin-4-yl)amino)methyl)-N-(2,2-difluoropropyl)benzamide] | ≤ 3 | *** (ratio≥10) | ≤ 3
7 | Nc1nccc(-c2cnc(NCc3cccc(C(=O)NC4CCOCC4)c3F)c3c2OCC3)n1 [Example 56, 3-(((7-(2-Aminopyrimidin-4-yl)-2,3-dihydrofuro[3,2-c]pyridin-4-yl)amino)methyl)-2-fluoro-N-(tetrahydro-2H-pyran-4-yl)benzamide] | 3 to 30 | *** (ratio≥10) | 3 to 30
8 | COCCCNC(=O)c1cc(F)cc(CNc2ncc(-c3ccnc(N)n3)c3c2CCO3)c1 [Example 60, 3-(((7-(2-Aminopyrimidin-4-yl)-2,3-dihydrofuro[3,2-c]pyridin-4-yl)amino)methyl)-5-fluoro-N-(3-methoxypropyl)benzamide] | ≤ 3 | *** (ratio≥10) | ≤ 3
9 | CNC(=O)c1cccc(CNc2ncc(-c3ccnc(N)n3)c3c2CCO3)c1F [Example 54, 3-(((7-(2-Aminopyrimidin-4-yl)-2,3-dihydrofuro[3,2-c]pyridin-4-yl)amino)methyl)-2-fluoro-N-methylbenzamide] | 3 to 30 | *** (ratio≥10) | > 30
10 | Nc1nccc(-c2cnc(NCc3cccc(C(=O)NCCCN4CCOCC4)c3)c3c2OCC3)n1 [Example 16, 3-(((7-(2-Aminopyrimidin-4-yl)-2,3-dihydrofuro[3,2-c]pyridin-4-yl)amino)methyl)-N-(3-morpholinopropyl)benzamide] | ≤ 3 | *** (ratio≥10) | ≤ 3
11 | COCCCC(=O)Nc1cccc(CNc2ncc(-c3ccnc(N)n3)c3c2CCO3)c1 [Example 64, N-(3-(((7-(2-aminopyrimidin-4-yl)-2,3-dihydrofuro[3,2-c]pyridin-4-yl)amino)methyl)phenyl)-4-methoxybutanamide] | ≤ 3 | *** (ratio≥10) | 3 to 30
12 | Nc1nccc(-c2cnc(NCc3cccc(C(=O)NCC4CC4)c3)c3c2OCC3)n1 [Example 25, 3-(((7-(2-Aminopyrimidin-4-yl)-2,3-dihydrofuro[3,2-c]pyridin-4-yl)amino)methyl)-N-(cyclopropylmethyl)benzamide] | ≤ 3 | *** (ratio≥10) | ≤ 3
13 | [2H]C([2H])([2H])OCCCNC(=O)c1cccc(CNc2ncc(-c3ccnc(N)n3)c3c2CCO3)c1 [Example 6, 3-(((7-(2-aminopyrimidin-4-yl)-2,3-dihydrofuro[3,2-c]pyridin-4-yl)amino)methyl)-N-(3-(methoxy-d3)propyl)benzamide] | ≤ 3 | *** (ratio≥10) | ≤ 3
14 | Nc1nccc(-c2cnc(NCc3cccc(C(=O)NCC(F)(F)F)c3)c3c2OCC3)n1 [Example 12, 3-(((7-(2-Aminopyrimidin-4-yl)-2,3-dihydrofuro[3,2-c]pyridin-4-yl)amino)methyl)-N-(2,2,2-trifluoroethyl)benzamide] | ≤ 3 | *** (ratio≥10) | 3 to 30
15 | CC1(CNC(=O)c2cccc(CNc3ncc(-c4ccnc(N)n4)c4c3CCO4)c2)CC1 [Example 30, 3-(((7-(2-Aminopyrimidin-4-yl)-2,3-dihydrofuro[3,2-c]pyridin-4-yl)amino)methyl)-N-((1-methylcyclopropyl)methyl)benzamide] | ≤ 3 | ** (5≤ratio<10) | ≤ 3
16 | COCCCNC(=O)c1ccc(F)c(CNc2ncc(-c3ccnc(N)n3)c3c2CCO3)c1 [Example 62, 3-(((7-(2-Aminopyrimidin-4-yl)-2,3-dihydrofuro[3,2-c]pyridin-4-yl)amino)methyl)-4-fluoro-N-(3-methoxypropyl)benzamide] | 3 to 30 | *** (ratio≥10) | > 30
17 | Nc1nccc(-c2cnc(NCc3cccc(C(=O)NCCCOC(F)F)c3)c3c2OCC3)n1 [Example 14, 3-(((7-(2-Aminopyrimidin-4-yl)-2,3-dihydrofuro[3,2-c]pyridin-4-yl)amino)methyl)-N-(3-(difluoromethoxy)propyl)benzamide] | ≤ 3 | *** (ratio≥10) | ≤ 3
18 | Nc1nccc(-c2cnc(NCc3cccc(C(=O)NC4CC4)c3)c3c2OCC3)n1 [Example 4, 3-(((7-(2-Aminopyrimidin-4-yl)-2,3-dihydrofuro[3,2-c]pyridin-4-yl)amino)methyl)-N-cyclopropylbenzamide] | ≤ 3 | *** (ratio≥10) | ≤ 3
19 | CNC(=O)c1cccc(CNc2ncc(-c3ccnc(N)n3)c3c2CCO3)c1 [Example 21, 3-(((7-(2-Aminopyrimidin-4-yl)-2,3-dihydrofuro[3,2-c]pyridin-4-yl)amino)methyl)-N-methylbenzamide] | ≤ 3 | *** (ratio≥10) | 3 to 30
20 | Nc1nccc(-c2cnc(NCc3cccc(C(=O)NCCN4CCCCC4)c3)c3c2OCC3)n1 [Example 5, 3-(((7-(2-Aminopyrimidin-4-yl)-2,3-dihydrofuro[3,2-c]pyridin-4-yl)amino)methyl)-N-(2-(piperidin-1-yl)ethyl)benzamide] | ≤ 3 | *** (ratio≥10) | ≤ 3

Reference: patent US20240092790A1, “DIHYDROFUROPYRIDINE DERIVATIVES AS RHO- KINASE INHIBITORS” (CHIESI FARMACEUTICI S.P.A., priority 2020, published 2024)
